From US8580965B2, “Substituted sulfonamide compounds” (Gruenenthal GmbH, priority 2006, dated 2013)
Where a name gives a salt, the structure may show the parent alone.

How the values were obtained:
[1] = biological target: T1, human B1R receptor (bradykinin 1 receptor) (Homo sapiens, UniProt P46663); assay: FLIPR Ca2+ assay (Fluo-4) on CHO K1 cells stably transfected with the human B1R gene; % activation and % inhibition at 10 μM; format: cell-based; settings: CHO-K1, test substance 10 μM; CHO K1 hB1R cells; Ca2+ inflow after 0.5 nM Lys-Des-Arg9-bradykinin; read-out: B1R antagonism, human [10 μM] % inhibition
T1 construct: host or cells: CHO K1 cells (hB1R cells)
T1 sequence (P46663 1-353): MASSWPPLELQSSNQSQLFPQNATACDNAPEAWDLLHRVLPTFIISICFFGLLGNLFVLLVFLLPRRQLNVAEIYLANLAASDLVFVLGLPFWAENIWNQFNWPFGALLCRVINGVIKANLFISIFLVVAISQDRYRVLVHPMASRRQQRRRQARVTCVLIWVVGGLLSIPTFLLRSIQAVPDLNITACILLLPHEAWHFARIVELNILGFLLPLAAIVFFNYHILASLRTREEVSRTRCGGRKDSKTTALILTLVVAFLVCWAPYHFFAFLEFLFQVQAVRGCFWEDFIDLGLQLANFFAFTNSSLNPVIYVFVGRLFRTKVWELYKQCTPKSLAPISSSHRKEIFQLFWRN
Outline: (§1)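 CHO K1 cells stably expressing human or rat B1R, Fluo-4 loaded, read by FLIPR (peak fluorescence). Compound at 10 µM first gives % activation versus agonist; after 10 min, agonist (human: 0.5 nM Lys-Des-Arg9-bradykinin; rat: 100 nM Des-Arg9-bradykinin) gives % inhibition relative to maximal inhibition.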

[2] = biological target: T2, B1R receptor of the rat (bradykinin 1 receptor) (Rattus norvegicus, UniProt P97583); assay: FLIPR Ca2+ assay (Fluo-4) on CHO K1 cells stably transfected with the B1R gene of the rat; % activation and % inhibition at 10 μM; format: cell-based; settings: CHO-K1, test substance 10 μM; CHO K1 rB1R cells; Ca2+ inflow after 100 nM Des-Arg9-bradykinin; read-out: B1R antagonism, rat [10 μM] % inhibition
T2 construct: host or cells: CHO K1 cells (rB1R cells)
T2 sequence (P97583 1-337): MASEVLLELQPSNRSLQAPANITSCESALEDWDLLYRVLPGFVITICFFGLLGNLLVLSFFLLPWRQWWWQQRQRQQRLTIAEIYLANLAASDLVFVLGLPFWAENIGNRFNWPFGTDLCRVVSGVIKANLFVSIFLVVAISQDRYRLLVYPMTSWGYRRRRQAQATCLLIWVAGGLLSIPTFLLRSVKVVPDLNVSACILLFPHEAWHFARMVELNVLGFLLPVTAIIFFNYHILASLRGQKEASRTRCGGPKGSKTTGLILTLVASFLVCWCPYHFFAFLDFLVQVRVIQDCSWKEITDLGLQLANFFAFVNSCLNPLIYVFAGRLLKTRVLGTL
Outline: as §1

Structure (SMILES) | inhibition at 10 µM [1] [%] | inhibition at 10 µM [2] [%]
O=C(COCC1CCCCN1S(=O)(=O)c1cccc(C(F)(F)F)c1)N1CCC(O)(c2ccccn2)CC1 (stereo not shown) [Example 96, 1-(4′-hydroxy-3′,4′,5′,6′-tetrahydro-2′H-[2,4′]bipyridinyl-1′-yl)-2-[1-(3-trifluoromethyl-phenylsulfonyl)-piperidin-2-ylmethoxy]-ethanone] | 50.5 | 46.2
Cc1ccc(F)cc1S(=O)(=O)N(C)CCOCC(=O)N1CCC(O)(c2ccccn2)CC1 [Example 97, 5-fluoro-N-{2-[2-(4′-hydroxy-3′,4′,5′,6′-tetrahydro-2′H-[2,4′]bipyridinyl-1′-yl)-2-oxo-ethoxy]-ethyl}-2,N-dimethyl-phenylsulfonamide] | 35.4 | 43.2
O=C(COC1CCN(S(=O)(=O)c2c(Cl)cc(Cl)cc2Cl)C1)N1CCC(O)(c2ccccn2)CC1 (stereo not shown) [Example 98, 1-(4′-hydroxy-3′,4′,5′,6′-tetrahydro-2′H-[2,4′]bipyridinyl-1′-yl)-2-[1-(2,4,6-trichloro-phenylsulfonyl)-pyrrolidin-3-yloxy]-ethanone] | 29.1 | 31.9
O=C(COCC1Cc2ccccc2N1S(=O)(=O)c1ccc(Cl)c(Cl)c1)N1CCC(O)(Cc2ccccc2)CC1 (stereo not shown) [Example 99, 1-(4-benzyl-4-hydroxy-piperidin-1-yl)-2-[1-(3,4-dichloro-phenylsulfonyl)-2,3-dihydro-1H-indol-2-ylmethoxy]-ethanone] | -22.9 | -12.4
O=C(COCC1Cc2ccccc2N1S(=O)(=O)c1ccc(Cl)c(Cl)c1)N1CCC(O)(c2cccnc2)CC1 (stereo not shown) [Example 100, 2-[1-(3,4-dichloro-phenylsulfonyl)-2,3-dihydro-1H-indol-2-ylmethoxy]-1-(4′-hydroxy-3′,4′,5′,6′-tetrahydro-2′H-[3,4′]bipyridinyl-1′-yl)-ethanone] | -6.26 | -0.67
Cc1cc(C)c(S(=O)(=O)N2Cc3ccccc3CC2COCC(=O)N2CCC(O)(c3ccccc3)CC2)c(C)c1 (stereo not shown) [Example 101, 1-(4-hydroxy-4-phenylpiperidin-1-yl)-2-((2-(mesitylsulfonyl)-1,2,3,4-tetrahydroisoquinolin-3-yl)methoxy)ethanone] | 102 | 85.4
CN(CCOCC(=O)N1CCC(O)(c2cccnc2)CC1)S(=O)(=O)c1ccc(Cl)s1 [Example 102, 5-chloro-thiophene-2-sulfonic acid {2-[2-(4′-hydroxy-3′,4′,5′,6′-tetrahydro-2′H-[3,4′]bipyridinyl-1′-yl)-2-oxo-ethoxy]-ethyl}-methyl-amide] | 14.2 | 16.1
CN(CCOCC(=O)N1CCC(O)(c2ccccn2)CC1)S(=O)(=O)c1ccc(Cl)s1 [Example 103, 5-chloro-thiophene-2-sulfonic acid {2-[2-(4′-hydroxy-3′,4′,5′,6′-tetrahydro-2′H-[2,4′]bipyridinyl-1′-yl)-2-oxo-ethoxy]-ethyl}-methyl-amide] | -9.25 | 19.3
Cc1cc(Cl)cc(Cl)c1S(=O)(=O)N(C)CCOCC(=O)N1CCC(O)(c2ccc(Cl)cc2)CC1 [Example 104, 2,4-dichloro-N-(2-(2-(4-(4-chlorophenyl)-4-hydroxypiperidin-1-yl)-2-oxoethoxy)ethyl)-N,6-dimethylphenylsulfonamide] | 99.7 | 95.8
Cc1cc(Cl)cc(Cl)c1S(=O)(=O)N(C)CCOCC(=O)N1CCC(O)(c2ccccc2)CC1 [Example 105, 2,4-dichloro-N-(2-(2-(4-hydroxy-4-phenylpiperidin-1-yl)-2-oxoethoxy)ethyl)-N,6-dimethylphenylsulfonamide] | 98.6 | 96.1
Cc1cc(Cl)cc(Cl)c1S(=O)(=O)N(C)CCOCC(=O)N1CCC(O)(Cc2ccccc2)CC1 [Example 106, N-{2-[2-(4-benzyl-4-hydroxy-piperidin-1-yl)-2-oxo-ethoxy]-ethyl}-2,4-dichloro-6,N-dimethyl-phenylsulfonamide] | 97.8 | 96.1
O=C(COC1CCN(S(=O)(=O)c2c(Cl)cc(Cl)cc2Cl)C1)N1CCC(O)(c2ccc(Cl)cc2)CC1 (stereo not shown) [Example 107, 1-(4-(4-chlorophenyl)-4-hydroxypiperidin-1-yl)-2-(1-(2,4,6-trichlorophenylsulfonyl)pyrrolidin-3-yloxy)ethanone] | 75.5 | 71.9
O=C(COC1CCN(S(=O)(=O)c2c(Cl)cc(Cl)cc2Cl)C1)N1CCC(O)(c2ccccc2)CC1 (stereo not shown) [Example 108, 1-(4-hydroxy-4-phenylpiperidin-1-yl)-2-(1-(2,4,6-trichlorophenylsulfonyl)pyrrolidin-3-yloxy)ethanone] | 54.8 | 54.5
O=C(COC1CCN(S(=O)(=O)c2c(Cl)cc(Cl)cc2Cl)C1)N1CCC(O)(Cc2ccccc2)CC1 (stereo not shown) [Example 109, 1-(4-benzyl-4-hydroxy-piperidin-1-yl)-2-[1-(2,4,6-trichloro-phenylsulfonyl)-pyrrolidin-3-yloxy]-ethanone] | 103 | 82.5
Cc1cc(S(=O)(=O)N2CCCCC2CCC(=O)N2CCC(O)(c3cccnc3)CC2)c(C)cc1Cl (stereo not shown) [Example 111, 3-(1-(4-chloro-2,5-dimethylphenylsulfonyl)piperidin-2-yl)-1-(4-hydroxy-4-(pyridin-3-yl)piperidin-1-yl)propan-1-one hydrochloride] | 97.8 | 85.9
COc1cc(C)c(S(=O)(=O)N2CCCCC2CCC(=O)N2CCC(O)(c3cccnc3)CC2)c(C)c1 (stereo not shown) [Example 112, 1-(4-hydroxy-4-(pyridin-3-yl)piperidin-1-yl)-3-(1-(4-methoxy-2,6-dimethylphenylsulfonyl)piperidin-2-yl)propan-1-one] | 106 | 101
Cc1cc(S(=O)(=O)N(C)CCCC(=O)N2CCC(O)(c3cccnc3)CC2)c(C)cc1Cl [Example 113, 4-chloro-N-(4-(4-hydroxy-4-(pyridin-3-yl)piperidin-1-yl)-4-oxobutyl)-N,2,5-trimethylphenylsulfonamide hydrochloride] | 94.8 | 51.1
CN(CCCC(=O)N1CCC(O)(c2cccnc2)CC1)S(=O)(=O)c1ccc2ccccc2c1 [Example 115, N-(4-(4-hydroxy-4-(pyridin-3-yl)piperidin-1-yl)-4-oxobutyl)-N-methylnaphthalene-2-sulfonamide] | 55.2 | 44.3
O=C(CCC1CCCCN1S(=O)(=O)c1ccc2ccccc2c1)N1CCC(O)(c2cccnc2)CC1 (stereo not shown) [Example 117, 1-(4-hydroxy-4-(pyridin-3-yl)piperidin-1-yl)-3-(1-(naphthalen-2-ylsulfonyl)piperidin-2-yl)propan-1-one] | 84.8 | 24.2
O=C(CCC1CCCCN1S(=O)(=O)c1ccc(Cl)cc1Cl)N1CCC(O)(c2cccnc2)CC1 (stereo not shown) [Example 118, 3-(1-(2,4-dichlorophenylsulfonyl)piperidin-2-yl)-1-(4-hydroxy-4-(pyridin-3-yl)piperidin-1-yl)propan-1-one] | 101 | 97.9
Cc1cc(S(=O)(=O)N2CCCCC2CCC(=O)N2CCC(O)(c3ccccn3)CC2)c(C)cc1Cl (stereo not shown) [Example 119, 3-(1-(4-chloro-2,5-dimethylphenylsulfonyl)piperidin-2-yl)-1-(4-hydroxy-4-(pyridin-2-yl)piperidin-1-yl)propan-1-one] | 82.6 | 22.4
Cc1cc(S(=O)(=O)N2CCCCC2CCC(=O)N2CCC(O)(c3cccc(F)c3)CC2)c(C)cc1Cl (stereo not shown) [Example 120, 3-(1-(4-chloro-2,5-dimethylphenylsulfonyl)piperidin-2-yl)-1-(4-(3-fluorophenyl)-4-hydroxypiperidin-1-yl)propan-1-one] | 58.4 | 45.9
COc1cc(C)c(S(=O)(=O)N(C)CCCCC(=O)N2CCC(O)(c3cccnc3)CC2)c(C)c1 [Example 121, N-(5-(4-hydroxy-4-(pyridin-3-yl)piperidin-1-yl)-5-oxopentyl)-4-methoxy-N,2,6-trimethylphenylsulfonamide] | 100 | 57.1
